Assay results: patent publication US20240261259A1 (priority 2021, published 2024)

Tested on: FLT3 mutant positive AML
Assay: Clinical response to midostaurin plus chemotherapy, Princess Margaret cohort of 54 AML patients
Assay type: in vivo, human
[1] = midostaurin plus chemotherapy, 54 FLT3 mutant-positive AML patients

## CO[C@@H]1[C@H](N(C)C(=O)c2ccccc2)C[C@H]2O[C@]1(C)n1c3ccccc3c3c4c(c5c6ccccc6n2c5c31)C(=O)NC4 [midostaurin, N-[(9S,I0R,I IR,I3R)-2,3,I0,I I,I2,I3-hexahydro-I0-methoxy-9-methyl-I-oxo-9,I3-epoxy-IH, 9H-diindolo[1,2,3-gh: 3′,2′,I′-Im]pyrrolo[3,4-j][I, 7]benzodiazonin-I I-yl]-N-methylbenzamide]
[1]
  Responses to midostaurin, average: 84 weeks
  Responses to midostaurin, range: 0-513 weeks
Of 54 AML patients treated with midostaurin plus chemotherapy
  patients refractory or relapsed at the time of carrying out the analysis: 25 patients
